This experiment deals with Plasmodium berghei. The experiment is described as follows: Luciferase/luciferin-expressing antifolate-resistant parasites were used to infect a culture of HepG2 cells that were pre-incubated with compounds. Infected hepatocytes emit light due to the luciferase reaction. Assay results are presented as the percent inhibition of light emission compared to control. […]. The format is functional. The note with it: sporozoite; for IC90: read-out: LUCIFERASE INFECTION ASSAY - IC90.

The mark [1] stands for this setting: read-out: LUCIFERASE INFECTION ASSAY - IC50.

For the compound `COc1ccc(-c2nc(NC(=O)CCc3ccc4c(c3)OCO4)sc2C)cc1`, the IC90 was greater than 10 µM. The concentration for half-maximal inhibition (IC50) (PBLUC_HILL_SLOPE 15.2, PBLUC_R_SQUARED 0.468, read-out: LUCIFERASE INFECTION ASSAY - IC50) is 8.95 µM.

`Nc1nccnc1C(=O)NNC(=O)c1cc2c(s1)CCCCCC2`: the IC90 was determined as 3.7 µM. In addition, the IC50 (HEPG2TOX_HILL_SLOPE 2.95, HEPG2TOX_R_SQUARED 0.777, PBLUC_HILL_SLOPE 11, PBLUC_R_SQUARED 0.184, read-out: LUCIFERASE INFECTION ASSAY - IC50) was 3.03 µM.

In the case of `CCN(CC)C(=S)SCC(=O)c1cc(C)n(-c2ccccc2)c1C`, the IC90 was greater than 10 µM. Moreover, the IC50 under setting [1] amounted to 4.85 µM.

For the compound `CCN1N=C(c2ccc(OC)cc2)c2ccc(OC)c3cccc1c23`, the IC90 was determined as 8.69 µM. For the same compound, for the setting “FFLUC_HILL_SLOPE 16.1, FFLUC_R_SQUARED 0.71, HEPG2TOX_HILL_SLOPE 5.83, HEPG2TOX_R_SQUARED 0.386, PBLUC_HILL_SLOPE 3.16, PBLUC_R_SQUARED 0.408, read-out: LUCIFERASE INFECTION ASSAY - IC50”, the IC50 worked out at 4.33 µM.

Regarding `CCc1cc(=O)oc2cc(OCc3csc(N(C(C)=O)c4cccc(C)c4)n3)ccc12`, the IC90 is greater than 10 µM. Besides, the IC50 under setting [1] was greater than 10 µM.

`O=C(COc1ccccc1SCc1ccc(Cl)cc1)NNC(=O)c1cccc(C(F)(F)F)c1`: the IC90 was greater than 6.67 µM. Further, under setting [1], the IC50 was greater than 6.67 µM.

As to `COc1ccc(C(=O)CSC2=NCCCC2)cc1`, the IC90 was greater than 9.59 µM. The IC50 under setting [1] was greater than 9.59 µM.

Regarding `CC(C)n1ncc2cc(C(=O)Nc3nc4ccccc4s3)cnc21`, the IC90 amounted to 1.97 µM. The IC50 under setting [1] was 0.00908 µM.

For the compound `Cc1nn(-c2ccc(Cl)cc2)c2sc(C(=O)NC(C)(C)CC(C)(C)C)cc12`, the IC90 is greater than 10 µM. Also, the half-inhibitory concentration (IC50) under setting [1] was greater than 10 µM.

Take `C(=N\Nc1ncnc2sc(-c3ccccc3)cc12)/c1sc(N2CCCCC2)nc1-c1cccs1`: the IC90 is 1.21 µM. For the same compound, the IC50 (FFLUC_HILL_SLOPE 0.658, FFLUC_R_SQUARED 0.126, HEPG2TOX_HILL_SLOPE 2.14, HEPG2TOX_R_SQUARED 0.958, PBLUC_HILL_SLOPE 24.1, PBLUC_R_SQUARED 0.279, read-out: LUCIFERASE INFECTION ASSAY - IC50) is 1.11 µM.

Take `O=C1Nc2ccc(Cl)cc2/C1=C/c1cn(Cc2ccccc2)nc1-c1cccnc1`: the IC90 is greater than 10 µM. For the same compound, the IC50 (PBLUC_HILL_SLOPE 3.18, PBLUC_R_SQUARED 0.696, read-out: LUCIFERASE INFECTION ASSAY - IC50) turned out to be 5.57 µM.

Consider `Cn1c(NCc2ccccc2)nc2cnc(-c3ccsc3)cc21`, for which the 90% effect concentration (IC90) is greater than 10 µM. Further, the half-inhibitory concentration (IC50) under setting [1] was greater than 10 µM.

As to `N#CC(C#N)=C/C=C(/Sc1nc(-c2ccccc2)cs1)c1ccc(Cl)cc1`, the IC90 was greater than 8.13 µM. In addition, the IC50 (FFLUC_HILL_SLOPE 19.5, FFLUC_R_SQUARED 0.704, PBLUC_HILL_SLOPE 6.45, PBLUC_R_SQUARED 0.183, read-out: LUCIFERASE INFECTION ASSAY - IC50) is greater than 8.13 µM.

In the case of `Cc1ccc(-c2cnn3c(NCCN(C)C)cc(C)nc23)cc1`, the IC90 was found to be 10.6 µM. Also, under “PBLUC_HILL_SLOPE 1.98, PBLUC_R_SQUARED 0.569, read-out: LUCIFERASE INFECTION ASSAY - IC50”, the IC50 came to 3.5 µM.

As to `O=C(c1ccc(Sc2ccccc2)c([N+](=O)[O-])c1)N(Cc1ccc2c(c1)OCO2)c1ccc(F)cc1`, the IC90 was greater than 6.57 µM. Also, the IC50 under setting [1] was greater than 6.57 µM.

As to `Cc1cc(C)nc(N/N=C/c2cn(-c3ccccc3)nc2-c2ccc3c(c2)OCCO3)n1`, the IC90 came to 9.32 µM. Also, the IC50 (HEPG2TOX_HILL_SLOPE 17.9, HEPG2TOX_R_SQUARED 0.773, PBLUC_HILL_SLOPE 3.73, PBLUC_R_SQUARED 0.671, read-out: LUCIFERASE INFECTION ASSAY - IC50) amounted to 5.18 µM.

For the compound `CC(C)(C)c1ccc(NC(=O)c2cnccn2)cc1`, the IC90 was 8.29 µM. Besides, the IC50 (FFLUC_HILL_SLOPE 1.15, FFLUC_R_SQUARED 0.77, PBLUC_HILL_SLOPE 0.39, PBLUC_R_SQUARED 0.583, read-out: LUCIFERASE INFECTION ASSAY - IC50) was 0.0298 µM.

On to `O=C(/N=c1\sc(-c2ccccc2)c(-c2ccccc2)n1CCc1ccccc1)c1ccccc1`, for which the concentration for an effect of 90% (IC90) is greater than 10 µM. For the same compound, the IC50 (FFLUC_HILL_SLOPE 3.75, FFLUC_R_SQUARED 0.66, PBLUC_HILL_SLOPE 10.4, PBLUC_R_SQUARED 0.195, read-out: LUCIFERASE INFECTION ASSAY - IC50) stood at 8.64 µM.

As for `OC[C@H]1O[C@@H](c2nc(-c3nc(-c4ccc5[nH]ccc5c4)no3)cs2)[C@H](O)[C@@H]1O`, the IC90 worked out at 1.55 µM. Also, the IC50 (PBLUC_HILL_SLOPE 1.16, PBLUC_R_SQUARED 0.583, read-out: LUCIFERASE INFECTION ASSAY - IC50) came to 0.232 µM.

On to `O=C(OC(C(=O)N1CCOCC1)c1ccccc1)c1cccc(-n2cccc2)c1` (centres undefined), for which the IC90 is greater than 2 µM. Under setting [1], the IC50 was greater than 2 µM.

As to `c1ccc(C[n+]2ccc(-c3ncc(-c4ccc5ccccc5c4)o3)cc2)cc1`, the IC90 was found to be 4.15 µM. Also, the IC50 (HEPG2TOX_HILL_SLOPE 3.46, HEPG2TOX_R_SQUARED 0.77, PBLUC_HILL_SLOPE 12.4, 9.50, PBLUC_R_SQUARED 0.642, 0.816, read-out: LUCIFERASE INFECTION ASSAY - IC50) amounted to 3.38 µM.

For the compound `CCCCCCn1c(SCC(=O)Nc2sc(C(=O)N(CC)CC)c(C)c2C(=O)OCC)nc2ccccc21`, the IC90 is greater than 10 µM. Under setting [1], the half-maximal inhibitory concentration (IC50) was greater than 10 µM.

For the compound `CN(C)c1ccc(-c2cc3c(cn2)nc(NCc2ccccc2F)n3C)cc1`, the IC90 was greater than 10 µM. For the same compound, the IC50 (HEPG2TOX_HILL_SLOPE 12.8, HEPG2TOX_R_SQUARED 0.633, PBLUC_HILL_SLOPE 3.52, PBLUC_R_SQUARED 0.567, read-out: LUCIFERASE INFECTION ASSAY - IC50) was 5.77 µM.

For the compound `CCCCNC(=O)c1c(NC(=O)c2cccc(F)c2)nc2ccc(C)cn12`, the IC90 was found to be 2.84 µM. Further, under setting [1], the IC50 is 1.29 µM.

Turning to `CC(C)Cc1ccc(C(Nc2ccc3nnnn3n2)C(C)C)cc1` (centres undefined), the IC90 is 3.82 µM. Moreover, the IC50 (PBLUC_HILL_SLOPE 13.1, PBLUC_R_SQUARED 0.631, read-out: LUCIFERASE INFECTION ASSAY - IC50) was 3.23 µM.

For the compound `Cc1n(-c2ccccc2)c2c([n+]1C)C(=O)c1ccccc1C2=O`, the IC90 came out at 0.202 µM. Moreover, under “HEPG2TOX_HILL_SLOPE 0.753, HEPG2TOX_R_SQUARED 0.901, PBLUC_HILL_SLOPE 2.16, PBLUC_R_SQUARED 0.72, read-out: LUCIFERASE INFECTION ASSAY - IC50”, the IC50 turned out to be 0.0731 µM.

On to `CC(C)(C)C(=O)c1sc2c(c1N)c(=O)[nH]c(=O)n2C1CCCCC1`, for which the IC90 was 3.47 µM. Further, the IC50 (PBLUC_HILL_SLOPE 15.3, PBLUC_R_SQUARED 0.0878, read-out: LUCIFERASE INFECTION ASSAY - IC50) is 3.01 µM.

In the case of `CCN(CC)c1ccc(NC(=O)c2c(F)cccc2F)c(N(CC)CC)n1`, the IC90 was greater than 8.77 µM. Also, the IC50 (PBLUC_HILL_SLOPE 1.91, PBLUC_R_SQUARED 0.469, read-out: LUCIFERASE INFECTION ASSAY - IC50) amounted to 5.46 µM.

For the compound `COC(=O)/C(O)=C/C(=O)c1c(C)[nH]c(C(=O)OC)c1C`, the IC90 is greater than 10 µM. Under setting [1], the 50% inhibitory concentration (IC50) was greater than 10 µM.

With `CNc1snc(C)c1C(=O)NCC(c1cccs1)c1c[nH]c2ccccc12` (centres undefined), the IC90 was 9.68 µM. The IC50 (PBLUC_HILL_SLOPE 9.74, PBLUC_R_SQUARED 0.4, read-out: LUCIFERASE INFECTION ASSAY - IC50) came to 7.72 µM.

For `FC(F)Sc1ccc(Nc2ncnc3sccc23)cc1`, the IC90 was greater than 10 µM. Besides, for the setting “PBLUC_HILL_SLOPE 12.8, PBLUC_R_SQUARED 0.441, read-out: LUCIFERASE INFECTION ASSAY - IC50”, the IC50 was 9.17 µM.

For `Cn1c(=O)c2cc3cc(Cl)ccc3nc2c2c(=O)n(-c3ccccc3)c(=O)n(-c3ccccc3)c21`, the IC90 was greater than 6.86 µM. Where the note is “HEPG2TOX_HILL_SLOPE 9.44, HEPG2TOX_R_SQUARED 0.957, PBLUC_HILL_SLOPE 32.7, PBLUC_R_SQUARED 0.0582, read-out: LUCIFERASE INFECTION ASSAY - IC50”, the IC50 came out at 6.86 µM.

In the case of `COc1ccc(CNc2nc(C)nc3scc(-c4cccs4)c23)cn1`, the 90% effect concentration (IC90) was greater than 10 µM. Moreover, the IC50 (HEPG2TOX_HILL_SLOPE 2.96, HEPG2TOX_R_SQUARED 0.967, read-out: LUCIFERASE INFECTION ASSAY - IC50) is greater than 10 µM.

With `O=C(Nc1nc(-c2ccc3c(c2)CCC3)cs1)c1ccc(CSc2nnc[nH]2)cc1`, the IC90 is greater than 10 µM. The IC50 (HEPG2TOX_HILL_SLOPE 14.2, HEPG2TOX_R_SQUARED 0.936, PBLUC_HILL_SLOPE 3.67, PBLUC_R_SQUARED 0.0328, read-out: LUCIFERASE INFECTION ASSAY - IC50) was 6.58 µM.

Take `CC(OC(=O)c1cc2ccccc2cc1O)C(=O)Nc1cccc(S(=O)(=O)N2CCOCC2)c1` (centres undefined): the IC90 is greater than 10 µM. In addition, the IC50 (FFLUC_HILL_SLOPE 10.4, FFLUC_R_SQUARED 0.221, read-out: LUCIFERASE INFECTION ASSAY - IC50) was greater than 10 µM.

Take `COCCCNc1nccc2nc(-c3cccc(OC(F)(F)F)c3)[nH]c12`: the IC90 was greater than 10 µM. Where the note is “HEPG2TOX_HILL_SLOPE 4.74, HEPG2TOX_R_SQUARED 0.77, PBLUC_HILL_SLOPE 3.71, PBLUC_R_SQUARED 0.224, read-out: LUCIFERASE INFECTION ASSAY - IC50”, the IC50 stood at 5.72 µM.

Turning to `CC(C)NC(=O)c1c(NC(=O)c2cccc(C#N)c2)nc2ccccn12`, the IC90 was found to be 7.68 µM. For the same compound, the IC50 (HEPG2TOX_HILL_SLOPE 1.47, HEPG2TOX_R_SQUARED 0.952, PBLUC_HILL_SLOPE 19.2, PBLUC_R_SQUARED 0.401, read-out: LUCIFERASE INFECTION ASSAY - IC50) is 6.85 µM.

The record behind these values is ChEMBL document CHEMBL4483862, “Open-source discovery of chemical leads for next-generation chemoprotective antimalarials” (2018).
